SMILES strings stand for the structures. Peptide text beside a SMILES is read from it. * marks the point of attachment. Fmoc = O=C(OCC1c2ccccc2-c2ccccc21)*

One compound from US20250123280A1, “LABEL-FREE DETECTION OF PROTEASE ACTIVITY” (OREGON HEALTH & SCIENCE UNIVERSITY, priority 2021, published 2025) can be followed below.

Data set [1] in a line: CD time-course of structures formed by peptide 1 with legumain. Format: physicochemical. As to conditions: after two weeks with legumain, 37° C. The procedure:
A time-course study of the legumain assay was also run. Peptide 1 was dissolved at 0.333 mg/mL in low far-UV absorbance CD buffer, pH 5.5-6. Legumain was activated for abut 2 hours at 37° C. in far-UV absorbance CD buffer, pH 4. Spectra were acquired from 260-190 nm with 1.0 nm band-width, 20 nm/min scan speed, and 2 sec integration time. A 5 minute acquisition cycle was automatically run 26 times, followed by manual acquisitions at 28 hours, 53 hours, 78 hours, and 14 days. The temperature was maintained at 37° C. throughout. Legumain (333 ng/mL) was mixed with peptide 1 just prior to acquisition of the second spectrum (the 0 min time point). All spectra were subsequently background subtracted and then smoothed using a Savitsky-Golay filter. Data are presented in units of molar circular dichroism, Δε(M^−1 cm^−1).

The target in the next data set is T1, legumain (Mus musculus, UniProt O89017).
T1 construct: purchased Novus Biologicals
T1 sequence (O89017 18-325 limits assumed): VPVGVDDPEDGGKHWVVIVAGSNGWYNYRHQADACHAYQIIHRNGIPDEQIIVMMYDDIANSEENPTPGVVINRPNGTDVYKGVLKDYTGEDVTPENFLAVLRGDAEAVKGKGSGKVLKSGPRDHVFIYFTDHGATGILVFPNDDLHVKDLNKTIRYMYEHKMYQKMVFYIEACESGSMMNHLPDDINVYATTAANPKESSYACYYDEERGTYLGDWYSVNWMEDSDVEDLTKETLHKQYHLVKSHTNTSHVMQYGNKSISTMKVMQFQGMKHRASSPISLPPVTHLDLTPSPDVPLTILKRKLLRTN
Kind of data set: LC-MS analysis of hydrolysis of peptide 1 by legumain. The note with it: peptide about 0.5 mg/mL, legumain about 1000 ng/mL, 37° C., about 2 hours. Format: biochemical. How it is done:
Fluorescence spectroscopy. For fluorescence measurements, peptide 2 was dissolved in DMSO to give a peptide concentration of 10 mg/mL, and it was 5× diluted in DMSO or the assay buffer and fluorescence spectra of the Fmoc groups were recorded using an FP-8500 spectrofluorometer (JASCO, Inc). Liquid chromatography mass spectrometry (LC-MS) measurements. LC-MS measurements were carried using an Acquity UPLC System (Waters) equipped with a SQ Detector 2 (Waters) and a C18 column (Waters). For LC-MS measurement, peptide 1 was first dissolved in ultrapure water containing 25% DMSO and diluted in PBS and MES mixture with or without legumain as described above. Final peptide concentration was about 0.5 mg/mL and legumain concentrations were about 0 ng/mL and about 1000 ng/mL. Samples were incubated at 37° C. for about 2 hours, diluted in HPLC grade water and acetonitrile mixture (1:1) containing 1% formic acid, and loaded to the column.

Regarding `C[C@H](NC(=O)[C@H](C)NC(=O)[C@H](CCC(=O)O)NC(=O)[C@H](Cc1ccccc1)NC(=O)[C@H](CCCCN)NC(=O)[C@H](Cc1ccccc1)NC(=O)OCC1c2ccccc2-c2ccccc21)C(=O)N[C@@H](CC(N)=O)C(=O)NCC(=O)N[C@@H](CCC(=O)O)C(=O)N[C@@H](CCC(=O)O)C(=O)NCC(=O)N[C@@H](CO)C(=O)NCC(=O)N[C@@H](CCC(=O)O)C(=O)N[C@@H](CCC(=O)O)C(=O)O` [peptide 1] (Fmoc-FKFEAANGEEGSGEE-OH; C-terminus assumed), the “stability of the formed structures (CD spectrum)” value in data set [1] is reported as “long-term stability”. For the same compound, on legumain, the “peptide cleaved by legumain (LC-MS)” value is about 30%.
